Assay results from BindingDB's records for doi:10.1016/S0960-894X(00)80068-2 (1994).

Key:
[1] = molecular target: Sigma intracellular receptor 2 (Cavia porcellus); test: Binding affinity for Sigma opioid receptor type 2 in guinea pig brain homogenate with 4 nM [3H]-(+)-DTG
[2] = Binding affinity for Sigma opioid receptor type 1 in guinea pig brain homogenate with 0.5 nM [3H](+)-PENT

Which Ki [1] does the source give for `O=C1NC(c2ccccc2)(c2ccccc2)C(=O)N1CCCN1CCC(c2ccccc2)CC1` [5,5-Diphenyl-3-[3-(4-phenyl-piperidin-1-yl)-propyl]-imidazolidine-2,4-dione] here?
The Ki was 25 nM.

And the Ki [2]?
Its Ki is 22 nM.

With `O=C1NC(c2ccccc2)(c2ccccc2)C(=O)N1CCCCCN1CCN(c2ccccc2)CC1` [5,5-Diphenyl-3-[5-(4-phenyl-piperazin-1-yl)-pentyl]-imidazolidine-2,4-dione] as the molecule, how does the Ki [1] read?
Its Ki is 19 nM.

What about the Ki [2] of the same molecule?
The Ki was 19 nM.

What does the source list for `O=C1NC(c2ccccc2)(c2ccccc2)C(=O)N1CCCCN1CCN(c2ccccc2)CC1` [5,5-Diphenyl-3-[4-(4-phenyl-piperazin-1-yl)-butyl]-imidazolidine-2,4-dione]?
Ki [1]: 49 nM; Ki [2]: 328 nM

With `O=C1NC(c2ccccc2)(c2ccccc2)C(=O)N1CCN1CCC(c2ccccc2)CC1` [5,5-Diphenyl-3-[2-(4-phenyl-piperidin-1-yl)-ethyl]-imidazolidine-2,4-dione] as the molecule, how does the Ki [1] read?
The Ki was 43 nM.

What about the Ki [2] of the same molecule?
Its Ki is 17 nM.
